Experimental data taken from patent publication US20100297330A1, “YOGHURT CONTAINING HYDROXYTYROSOL AND OTHER BIOPHENOLS WITH A PREVENTIVE NUTRITIONAL ACTIVITY BENEFICIAL TO HUMAN BEINGS” (priority 2007, published 2010).

Columns and labels:
cell membranes = settings: cited from earlier work
mammals = test: toxicity in mammals (unpublished proprietary studies); assay type: in vivo; settings: 2 g/kg of body weight
human cell systems = settings: cited from earlier work

OCCc1ccc(O)c(O)c1 [HT, Hydroxytyrosol]
permeation of the cell membranes, mechanism (cell membranes): passive mechanism
toxicity or evident alterations in the internal organs (mammals): does not cause toxicity or evident alterations in the internal organs
effect on cytotoxic effects of reactive oxygen species (human cell systems): effectively counteracts the cytotoxic effects
